Paper PMC4784888, “Activity Based High-Throughput Screening for Novel O-GlcNAc Transferase Substrates Using a Dynamic Peptide Microarray” (PLoS ONE, 2016)

Legend:
OGT = settings: known OGT inhibitor; ref [31]; read-out: reported IC50; cited from earlier work
Source text: Its interesting biology motivated us to further focus on the validation of RBL-2 O-GlcNAcylation in the following work. Kinetic signals of the GlcNAcylation were collected to fully understand the O-GlcNAcylation of RBL-2_420–422.

purified m-OGT [1] = experiment: Inhibition of RBL-2_410–422 O-GlcNAcylation by known OGT inhibitor on microarray; type: biochemical, human; settings: 200 μM ST045849, purified m-OGT (0.2 μg/μL), 1 mM UDP-GlcNAc
Protocol: One step OGT purification was performed using His60 Ni Gravity Flow Columns (Clontech) according to the manufacturer’s instructions. Briefly, the nickel column was equilibrated with a buffer containing 50 mM sodium phosphate, 300 sodium chloride, 20 mM imidazole, and pH 7.4, followed by incubation with cell lysate containing His tag OGT for 1h at 4°C. After washing several times using buffer containing 50 mM sodium phosphate, 300 sodium chloride, 40 mM imidazole, and pH 7.4, the recombinant OGT was eluted using elution buffer containing 50 mM sodium phosphate, 300 mM sodium chloride, 300 mM imidazole, and pH 7.4. […]
(§1) Peptide O-GlcNAcylation was assessed using PamChip 4 microarray chips with a PamStation 12 instrument (Pamgene international, The Netherlands). […] O-GlcNAcylation of each peptide was detected by a fluorescent signal which was produced by an FITC conjugated antibody bound to the O-GlcNAc moiety on the peptide.
Image analysis was performed using BioNavigator 6 software (Pamgene international, The Netherlands). Briefly, each image was quantified by automated array grid finding and subsequent quantification of signal and local background for each individual spot. In this work, the signal median-minus-background value was used as the quantitative parameter for the O-GlcNAcylation of the peptide. […]

m-OGT [2] = experiment: O-GlcNAcylation on kinase substrate peptide microarray, m-OGT; type: biochemical, human; settings: bacterial lysate containing m-OGT (7 μg/μL), 1 mM UDP-GlcNAc, 50 mM Tris-HCl pH 7.5, 30°C, FITC antibody fluorescence, corrected for signal without UDP-GlcNAc
Protocol: (§2) Plasmids encoding s-OGT, m-OGT, and nc-OGT are generous gifts from John A. Hanover (National Institute of Health, USA). OGT overexpression was carried out as previously described. All the plasmids were transformed into E.coli BL21 (DE3) competent cells to produce a cell lysate containing OGT for use or for further purification. Briefly, inoculated a single colony into 50 ml of LB broth media containing 50 μg/ml ampicillin and cells were grown overnight at 37°C with vigorous shaking. 50 mL of the start culture was added into 1L LB broth media containing 50 μg/mL ampicillin and it was incubated with shaking at 200 rpm at 37°C until A600 reached 0.4–0.6. After the culture was cooled to room temperature, 0.5 mM IPTG was added into the culture to induce protein expression. After 16 hours, the cells were collected by centrifugation for 10 min at 4000 RPM at 4°C. The pellets were lysed in lysis buffer containing 20 mM Tris-HCl, pH 7.5, 1 mg/mL lysome, 0.1% triton x-100 and complete mini EDTA-free protease inhibitor cocktail on ice for 10 min and the lysate was sonicated until the DNA was completely sheared. After centrifugation for 10 min at 12000 rpm at 4°C, the supernatant was carefully transferred into a clean tube and was ready for the array assay or for further purification. Protein expression was determined by coomassie blue staining and western blotting using an anti-OGT antibody.
(§3) Peptide O-GlcNAcylation was assessed using PamChip 4 microarray chips with a PamStation 12 instrument (Pamgene international, The Netherlands). The OGT enzyme reaction was prepared essentially as described[26] with minor modifications. Briefly, before addition of the enzyme reaction, the microarray was blocked with blocking buffer (1% BSA in TBS). After 30 cycles (2 cycles/min) blocking, the blocking buffer was aspirated and the microarray was incubated with 40 μL of the enzyme reaction containing OGT (lysate or purified), OGT reaction buffer (50 mM Tris—HCl, pH 7.5;1 mM DTT;12.5 mM MgCl2), a 1:1 pre-incubated mixture of anti-O-GlcNAc and FITC conjugated secondary antibody, and the sugar donor UDP-GlcNAc or water as a control for 480 cycles (2 cycles/min) at 30°C. The microarray was run in parallel by pumping the reaction up and down through the porous membrane at every cycle and a tiff image was obtained at every 20 cycles by a CCD camera inside the PamStation. O-GlcNAcylation of each peptide was detected by a fluorescent signal which was produced by an FITC conjugated antibody bound to the O-GlcNAc moiety on the peptide.
(§4) Image analysis was performed using BioNavigator 6 software (Pamgene international, The Netherlands). Briefly, each image was quantified by automated array grid finding and subsequent quantification of signal and local background for each individual spot. In this work, the signal median-minus-background value was used as the quantitative parameter for the O-GlcNAcylation of the peptide.
(§5) Dynamic peptide microarray (PamChip) technology has been successfully and widely used for kinase activities profiling in the last decade. In the present work, we describe, for the first time, the utility of this peptide microarray format for the identification of human OGT activity. Due to the fact that O-GlcNAcylation and phosphorylation may occur at the same or proximal amino acids on the same protein [9], a peptide microarray of 144 peptides derived from different kinase substrates (S1 Appendix) was selected for an initial test. […] O-GlcNAcylation of peptides in each individual spot was detected by a fluorescent signal produced by the FITC labelled antibody recognizing the O-GlcNAcylated amino acids of converted peptides. Kinetic activity was measured through scanning the signal at regular intervals.
(§6) Fig 2 Identification of human OGT substrates from a kinase substrate and nuclear hormone receptor interaction peptide microarray. […]

[3] = system: OGT (s-OGT, m-OGT, nc-OGT); experiment: O-GlcNAcylation on kinase substrate peptide microarray, three isoforms taken together; type: biochemical, human; settings: for O-GlcNAcylation by all three isoforms OGT: kinase substrate microarray, bacterial lysates s-, m-, nc-OGT, 1 mM UDP-GlcNAc
Protocol: as §2, with “The pellets were lysed in lysis buffer containing 20 mM Tris-HCl, pH 7.5, 1 mg/mL lysome, 0.1% triton x-100 and complete mini EDTA-free protease inhibitor cocktail on ice for 10 min and the lysate was sonicated until the DNA was completely sheared.” left out
as §1, §4
Dynamic peptide microarray (PamChip) technology has been successfully and widely used for kinase activities profiling in the last decade. […] Kinetic activity was measured through scanning the signal at regular intervals. […]

nc-OGT = experiment: O-GlcNAcylation on kinase substrate peptide microarray, nc-OGT; type: biochemical, human; settings: bacterial lysate containing nc-OGT (7 μg/μL), 1 mM UDP-GlcNAc, 50 mM Tris-HCl pH 7.5, 30°C, FITC antibody fluorescence, corrected for signal without UDP-GlcNAc
Protocol: as §2, §3, §4, §5, §6

purified m-OGT [4] = experiment: Ala scan of RBL-2_410–422 on peptide microarray; type: biochemical, human; settings: microarray; 1 mM UDP-GlcNAc, 0.2 μg/μL purified m-OGT
Protocol: One step OGT purification was performed using His60 Ni Gravity Flow Columns (Clontech) according to the manufacturer’s instructions. Briefly, the nickel column was equilibrated with a buffer containing 50 mM sodium phosphate, 300 sodium chloride, 20 mM imidazole, and pH 7.4, followed by incubation with cell lysate containing His tag OGT for 1h at 4°C. After washing several times using buffer containing 50 mM sodium phosphate, 300 sodium chloride, 40 mM imidazole, and pH 7.4, the recombinant OGT was eluted using elution buffer containing 50 mM sodium phosphate, 300 mM sodium chloride, 300 mM imidazole, and pH 7.4. The eluted fraction was concentrated through a 100,000 Da molecular weight cut off Amicon unit by centrifugation 10 min at 5000 RPM at 4°C.
as §3, §4
Synthesis of all the peptides was achieved by following a standard Fmoc SPPS strategy on a Symphony Multiple Peptide Synthesizer and starting from rink amide resin. The following Fmoc amino acids were used: Fmoc-Cys(Trt)-OH, Fmoc-Gly-OH, Fmoc-Lys(Boc)-OH, Fmoc-Glu(Otbu)-OH, Fmoc-Asn(Trt)-OH, Fmoc-Ser(tBu)-OH, Fmoc-Thr(tBu)-OH, Fmoc-Ala-OH, Fmoc-Pro-OH, Fmoc-Val-OH. Deprotection was performed using 20% piperidine in DMF, and coupling was performed using 1:0.9:2 amino acid/ HBTU/DIPEA in DMF. After completion of the synthesis, the protected peptidyl resins were incubated with a 10 mL mixture of TFA (trifluoroacetic acid): H2O: triisopropylsilane (TIPS): 1, 2-ethanedithiol (EDT) (9:0.5:0.25:0.25, v/v/v/v) and allowed to stir for 2 h at room temperature under a nitrogen atmosphere. The cleaving mixture was filtered and the resin was washed with TFA (2 mL) and DCM (4 mL). The residue was precipitated by treatment of precooled diethyl ether and centrifugation. Two times washing and centrifugation yielded the crude products in a pellet. The precipitated peptides were dissolved in water, frozen, and lyophilized. All products were stored at -20°C. Crude peptide analysis was carried out by LC-MS.
To further confirm this and investigate the role of this and surrounding amino acid residues in our activity based assay, we resynthesized the RBL-2 peptide present on the microarray and performed an Ala scan, thus replacing of all the possible O-GlcNAc sites (Ser and Thr) in RBL-2_420–422 (Fig 4A). To immobilize the peptides on the chip, all the peptides were prepared with an extra CG at the NH2 terminal to allow immobilization on the maleimide-based chip surface. […]

s-OGT = experiment: O-GlcNAcylation on kinase substrate peptide microarray, s-OGT; type: biochemical, human; settings: bacterial lysate containing s-OGT (7 μg/μL), 1 mM UDP-GlcNAc, 50 mM Tris-HCl pH 7.5, 30°C, FITC antibody fluorescence, corrected for signal without UDP-GlcNAc
Protocol: as §2, §3, §4, §5, §6

m-OGT [5] = experiment: Validation of RBL-2 peptide O-GlcNAcylation on microarray, dependency on UDP-GlcNAc and m-OGT lysate; type: biochemical, human
Protocol: as §2, with “After 16 hours, the cells were collected by centrifugation for 10 min at 4000 RPM at 4°C. The pellets were lysed in lysis buffer containing 20 mM Tris-HCl, pH 7.5, 1 mg/mL lysome, 0.1% triton x-100 and complete mini EDTA-free protease inhibitor cocktail on ice for 10 min and the lysate was sonicated until the DNA was completely sheared.” left out
Peptide O-GlcNAcylation was assessed using PamChip 4 microarray chips with a PamStation 12 instrument (Pamgene international, The Netherlands). […] O-GlcNAcylation of each peptide was detected by a fluorescent signal which was produced by an FITC conjugated antibody bound to the O-GlcNAc moiety on the peptide. […]

[6] = molecular target: T1, m-OGT (mitochondrial isoform of O-GlcNAc transferase) (human) (UniProt O15294)
T1 sequence: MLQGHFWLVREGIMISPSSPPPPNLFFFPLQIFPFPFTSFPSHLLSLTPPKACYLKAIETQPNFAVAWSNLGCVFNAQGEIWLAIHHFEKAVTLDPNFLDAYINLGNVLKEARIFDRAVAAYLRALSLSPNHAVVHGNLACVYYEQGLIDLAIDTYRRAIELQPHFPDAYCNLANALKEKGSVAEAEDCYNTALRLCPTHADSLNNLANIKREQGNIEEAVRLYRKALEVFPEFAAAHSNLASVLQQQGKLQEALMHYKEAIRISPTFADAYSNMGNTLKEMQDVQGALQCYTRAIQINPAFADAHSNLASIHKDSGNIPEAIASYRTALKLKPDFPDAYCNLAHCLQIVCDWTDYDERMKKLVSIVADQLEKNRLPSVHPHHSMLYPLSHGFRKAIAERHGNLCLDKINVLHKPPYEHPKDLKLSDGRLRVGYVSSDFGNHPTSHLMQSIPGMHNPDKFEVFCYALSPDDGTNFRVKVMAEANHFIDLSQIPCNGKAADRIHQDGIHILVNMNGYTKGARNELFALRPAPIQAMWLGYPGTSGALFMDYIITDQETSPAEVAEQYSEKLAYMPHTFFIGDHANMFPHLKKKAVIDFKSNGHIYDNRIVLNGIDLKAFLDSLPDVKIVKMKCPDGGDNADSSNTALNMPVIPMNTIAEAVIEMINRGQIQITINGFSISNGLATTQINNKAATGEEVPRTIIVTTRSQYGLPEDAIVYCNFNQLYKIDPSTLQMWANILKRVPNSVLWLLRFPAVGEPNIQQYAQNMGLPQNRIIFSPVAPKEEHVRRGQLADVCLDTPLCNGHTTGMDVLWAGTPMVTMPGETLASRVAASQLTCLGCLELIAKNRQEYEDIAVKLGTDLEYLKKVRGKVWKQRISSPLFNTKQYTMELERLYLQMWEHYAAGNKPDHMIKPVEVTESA

| Compound | OGT isoforms activity, m (m-OGT [2]) | OGT isoforms activity, nc (nc-OGT) | OGT isoforms activity, s (s-OGT) | O-GlcNAcylation by all three isoforms OGT [3] | further results |
| --- | --- | --- | --- | --- | --- |
| O=C(O)C1CC(=O)N(CCC23CC4CC(CC(C4)C2)C3)C(=Nc2ccc(Cl)cc2)S1 (stereo not shown) [ST045849, 3-(2-adamantanylethyl)-2-[(4-chlorophenyl)azamethylene]-4-oxo-1,3-thiazaperhyd roine-6-carboxylic acid] | – | – | – | – | IC50 (OGT): ~50 µM; inhibition of RBL-2 peptide O-GlcNAcylation (purified m-OGT [1]): 80% |
| KENSPCVTPVSTA [RBL-2_410_422, kinase substrate microarray peptide …] | P (Signal greater than 5% of the highest signal was defined as positive (P)) | P (Signal greater than 5% of the highest signal was defined as positive (P)) | P (Signal greater than 5% of the highest signal was defined as positive (P)) | – | Rank as hit in screening assay ([3]; peptide microarray screening): best hit in our screening assay; OGT activity of wild type compared with C415A, microarray (purified m-OGT [4]): dramatic decrease of activity comparing with C415A peptide; O-GlcNAcylation versus amount of m-OGT lysate (m-OGT [5]; bacterial lysate containing m-OGT 0, 1.7, 3.5, 7 μg/μL, 1 mM UDP-GlcNAc): increased with increasing amounts of bacterial lysate containing recombinant m-OGT; O-GlcNAcylation rate versus UDP-GlcNAc concentration (m-OGT [5]; bacterial lysate containing m-OGT (7 μg/μL), UDP-GlcNAc 0–10 mM): increased upon the addition of increasing concentrations of the donor UDP-GlcNAc |
| LSAFRRTSLAGGG [MYPC3_268_280, kinase substrate microarray peptide …] | P (Signal greater than 5% of the highest signal was defined as positive (P)) | P (Signal greater than 5% of the highest signal was defined as positive (P)) | P (Signal greater than 5% of the highest signal was defined as positive (P)) | significantly O-GlcNAcylated by all three isoforms OGT | – |
| MLRGRSLSVTSLG [GYS2_1_13, kinase substrate microarray peptide …] | P (Signal greater than 5% of the highest signal was defined as positive (P)) | P (Signal greater than 5% of the highest signal was defined as positive (P)) | P (Signal greater than 5% of the highest signal was defined as positive (P)) | significantly O-GlcNAcylated by all three isoforms OGT | – |
| RBL-2_410–422 T417A peptide (from UniProt Q08999 410-422) | – | – | – | – | O-GlcNAcylation of the peptide in solution, UDP-Glo assay (UDP formation) [6]: 20% |
| RBL-2_410–422 T421A peptide (from UniProt Q08999 410-422) | – | – | – | – | decrease of the O-GlcNAcylation of the immobilised peptide by purified m-OGT (0.2 μg/μL, 1 mM UDP-GlcNAc), peptide microarray, against the control peptide (wild type with C415A) [6]: 40% |
